Structures can show the parent of a compound that is named as a salt.
How the values were obtained:
[1] = tested on: arrhythmic cardiac microtissues (hiPSC-CM, cell line 1); experiment: Anti-arrhythmic drug testing on arrhythmic cardiac microtissues (optical mapping)
[2] = tested on: cardiac microtissues (hiPSC-CMs and human cardiac fibroblasts); experiment: Arrhythmia induction in 3D cardiac microtissues (brightfield beat rate, optical mapping, stimulation capture); assay type: cell-based; conditions: for presence of arrhythmias at endpoint: N=3
Method: (§1) Tissues were allowed to compact for 7 days (Day -7 to 0) and treatment with either arrhythmogenic or control media conditions began on day 8 post-seeding (e.g. Day 0 in FIG. 1A). Arrhythmogenic media consisted of DMEM no glucose (ThermoFisher; 11966025), B-27 minus insulin supplement (1×; ThermoFisher; A1895602), HEPES (10 mM), L-carnitine (2 mM), creatine (5 mM), taurine (5 mM), MEM non-essential amino acids ([…]; ThermoFisher; 11140050), insulin-transferrin-selenium (1×; ThermoFisher; 41400045), galactose (10 mM), MBCD or MBCD-conjugated FAs as follows: hiPSC-CMs were treated with 100 μM FAs (linoleic acid 40 μM, oleic acid 40 μM, and palmitic acid 20 μM; MBCD 0.8 mM); and hESC-CMs were treated with 200 μM FAs (linoleic acid 80 μM, oleic acid 80 μM, and palmitic acid 40 μM; MBCD 1.6 mM)), glutamine (1 mM), and antibiotic-antimycotic. […] Instead, control media were supplemented with glucose (5 mM) and either FA vehicles (MBCD) at a lower dose of MBCD than the arrhythmogenic media (0.5 mM) or no MBCD (to confirm MBCD was the arrhythmogenic agent). Microtissues were treated by addition of media containing the components described above for up to 5 days and analyzed (e.g., imaging, tissue harvesting for isolation of RNA for transcriptomic analysis, fixing tissues for histopathological assessments/staining) at different time points to assess functional and transcriptomic parameters (see FIG. 1A).
During contractile force measurements, cardiac microtissues were electrically stimulated at 1 Hz and at their respective excitation threshold and videos of the 1:30 PDMS rods were taken for 15 seconds under 10× magnification with a Leica EC3 camera. For tissue compaction and spontaneous beating rate measurements, the tissues were not stimulated.
To assess the range of stimulation capture, microtissues were stimulated by a silver electrode at 3 Hz and 6V, and the distance from the electrode to which point the cardiac microtissue was not electrically captured by the delivered electrical impulse was marked as the range of stimulation capture (mm) (e.g., see FIG. 1H).

[3] = tested on: 5-day arrhythmic cardiac microtissues; experiment: Arrhythmia reversal by removal of MBCD from media; assay type: cell-based, human; conditions: 5 days arrhythmogenic media
Method: as §1
Finally, it was reasoned that if MBCD was causing arrhythmias, removal of MBCD from culture media could reverse arrhythmias. To test this, 5-day arrhythmogenic tissues were cultured in control media for 5 additional days (see FIG. 6A). […] Arrhythmic tissues progressively regained synchronicity, allowing for the measurement of beat frequency.

[4] = isoproterenol added to lidocaine-treated arrhythmic tissues
[5] = arrhythmic tissues, acute treatment 30 min, lidocaine 17.5 μg/mL

CCCCc1oc2ccccc2c1C(=O)c1cc(I)c(OCCN(CC)CC)c(I)c1 [amiodarone, Amiodarone]
electrophysiological changes (wavefronts per frame, conduction velocity, cycle length) ([1]; arrhythmic tissues, acute treatment 30 min, flecainide 10 μM, propranolol 4 μg/mL, amiodarone 30 μg/mL): did not produce any significant electrophysiological changes

O=C[C@H](O)[C@@H](O)[C@@H](O)[C@H](O)CO [galactose]
presence of arrhythmias at endpoint ([2]; media containing only galactose (10 mM), no MBCD): did not become arrhythmic

CC(C)NCC(O)c1ccc(O)c(O)c1 (stereo not drawn) [isoproterenol]
conduction velocity [1, 4]: increase
cycle length [1, 4]: reduction
mean wavefronts per frame [1, 4]: no change

CCN(CC)CC(=O)Nc1c(C)cccc1C [lidocaine, Lidocaine HCl]
conduction velocity [1, 5]: significantly decreased
cycle length duration [1, 5]: increasing
mean number of wavefronts per frame [1, 5]: significant reduction

BSA-ligated fatty acids: BSA-ligated fatty acids used in place of MBCD-conjugated fatty acids
induction of arrhythmogenesis ([2]; BSA-ligated fatty acids instead of MBCD-conjugated fatty acids): no effect

methyl-β-cyclodextrin [MBCD]
development of arrhythmias ([2]; low MBCD concentration 0.5 mM (control media), 5 days): did not develop arrhythmias
presence of arrhythmias at endpoint ([2]; media containing both MBCD and glucose (5mM), 5 days): arrhythmias were also induced
Cx43 and N-Cad expression and co-localization after arrhythmia reversal ([3]; then 5 days control media): significant increase
passive force after arrhythmia reversal ([3]; then 5 days control media): without significant changes
synchronicity after removal of MBCD ([3]; then 5 days control media): started beating synchronously
contractile force of reverted tissues relative to age matched control tissues ([3]; then control media, plateau, p<0.0001): ~50%
